Data: patent US8084627B2, “Hydroxymethyl fluorescein derivatives for use as biological markers and dyes” (University of Pittsburgh-of the Commonwealth System of …, priority 2007, dated 2011)
Values belong to the compound of their own block, whether it stands above or below them.

How the values were obtained:
[1] = test system: Zebrafish embryos; test: Zebrafish embryo staining: localization and tissue permeability; type: in vivo; settings: confocal projections of head and tail, 80 μm of embryonic interior
Source text: Zebrafish embryos were stained with compound 3 and compound 4 in order to assess the localization and tissue permeability of each compound in vivo. This procedure had not previously been attempted in zebrafish embryos with an unconjugated fluorescein derivative. Therefore, the commercially available BODIPY TR methyl ester was used as a control stain since it has been successfully used for this purpose.[10] […] Yolk sacs and yolk extensions always appeared brighter than the embryos themselves (FIG. 3A-C). This is likely the result of compound accumulation within the lipidic yolk platelets that comprise almost the entire volume of the yolk.[11]
Structures containing little organic material, including scales and calcified otoliths, were not stained. Confocal sections of the dorsal midline (FIG. 3H, J, L) indicate that the notochord sheath and surrounding tissue are efficiently labeled, while the notochord vacuoles remain unstained.

[2] = test system: live human cells; settings: compared with Tokyo Green; cited from earlier work
[3] = carboxyl group replaced with methyl group; cited from earlier work

permeation of live tissue [1]: permeate live tissue to similar extents
Compound: COC(=O)COc1ccc(C2=[N+]3C(=Cc4ccc(-c5cccs5)n4[B-]3(F)F)C=C2)cc1 [BODIPY TR methyl ester]

Compound: Cc1ccccc1-c1c2cc(F)c(=O)cc-2oc2cc(O)c(F)cc12 [Pennsylvania Green]
fluorescence in live human cells [2]: more fluorescent than Tokyo Green

Compound: Cc1ccccc1-c1c2ccc(=O)cc-2oc2cc(O)ccc12 [Tokyo Green]
quantum yield relative to fluorescein [3]: no loss of quantum yield
